Measurements reported in patent US20070128217A1 (priority 2003, published 2007).

What was measured:
[1] = test system: control sera (pooled serum of ten healthy LUMC hospital workers; commercial negative donor pooled serum from the Dutch bloodbank); type: binding, human; parameters: Binding of Control serum LUMC to linear peptides / Binding of Control serum Blood-bank to linear peptides / Binding of Control serum LUMC to looped peptides / Binding of Control Serum Blood-Bank to Looped peptides / Binding of Control serum LUMC to linear peptides of the protein M of SARS-CoV Urbani / Binding of Control serum Blood-bank to linear peptides of the protein M of SARS-CoV Urbani / Binding of Control serum LUMC to looped peptides of the protein M of SARS-CoV Urbani / Binding of Control Serum Blood-Bank to Looped peptides of the protein M of SARS-CoV Urbani: unit not given here
[2] = test system: rabbit serum obtained by immunizing a rabbit with the SARS-CoV strain Frankfurt 1; type: binding; parameters: Binding of a rabbit serum to linear peptides / Binding of a rabbit serum to looped peptides / Rabbit serum linear peptides / Rabbit serum looped peptides / Binding of a rabbit serum to linear peptides of protein N of SARS-CoV Urbani (Rabbit serum linear peptides) / Binding of a rabbit serum to looped/cyclic peptides of protein N of SARS-CoV Urbani (Rabbit serum looped peptides): unit not given here
[3] = test system: antibodies in sera from SARS patients (sera 1a, 1b, 2, 6, 37, 62, London, SARS-yellow, SARS-green); type: binding, human; parameters: Binding of serum 6 to linear peptides of protein X1 of SARS-CoV Urbani / Binding of serum 37 to linear peptides of protein X1 of SARS-CoV Urbani / Binding of serum 6 to looped/cyclic peptide (PEPSCAN-ELISA) / Binding of serum 37 to looped/cyclic peptide (PEPSCAN-ELISA) / Binding of serum 37 to looped/cyclic peptides of protein X1 of SARS-CoV Urbani / Binding of serum 6 to linear peptides of protein X2 / Binding of serum 37 to linear peptides of protein X2 / Binding of serum 37 to looped/cyclic peptides of protein X2 of SARS-CoV Urbani / Binding of serum 6 to linear peptides of protein M of SARS-CoV Urbani / Binding of serum 37 to linear peptides of protein M of SARS-CoV Urbani / Binding of serum 6 to looped/cyclic peptides of protein M of SARS-CoV Urbani / Binding of serum 37 to looped/cyclic peptides of protein M of SARS-CoV Urbani / Binding of serum 6 to linear peptides of protein X3 of SARS-CoV Urbani / Binding of serum 37 to linear peptides of protein X3 of SARS-CoV Urbani / Binding of serum 37 to looped/cyclic peptides of protein X3 of SARS-CoV Urbani / Binding of serum 6 to linear peptides of protein X4 of SARS-CoV Urbani / Binding of serum 37 to linear peptides of protein X4 of SARS-CoV Urbani / Binding of serum 37 to looped/cyclic peptides of protein X4 of SARS-CoV Urbani / Binding of serum 6 to linear peptides of protein X5 of SARS-CoV Urbani / Binding of serum 37 to linear peptides of protein X5 of SARS-CoV Urbani / Binding of serum 37 to looped/cyclic peptides of protein X5 of SARS-CoV Urbani / Binding of serum 6 to linear peptides of protein N of SARS-CoV Urbani / Binding of serum 37 to linear peptides of protein N of SARS-CoV Urbani / Binding of serum 6 to linear peptide (PEPSCAN-ELISA) / Binding of serum 1a to looped/cyclic peptides of protein N of SARS-CoV Urbani / Binding of serum 1b to looped/cyclic peptides of protein N of SARS-CoV Urbani / Binding of serum 2 to looped/cyclic peptides of protein N of SARS-CoV Urbani / Binding of serum 6 to looped/cyclic peptides of protein N of SARS-CoV Urbani / Binding of serum 37 to looped/cyclic peptides of protein N of SARS-CoV Urbani / Binding of serum 62 to looped/cyclic peptides of protein N of SARS-CoV Urbani / Binding of serum London to looped/cyclic peptides of protein N of SARS-CoV Urbani / Binding of serum SARS-green to looped/cyclic peptides of protein N of SARS-CoV Urbani: unit not given here

## FLAVFQSATKIIALN
[1]
  Binding of Control Serum Blood-Bank to Looped peptides: 0.6
  Binding of Control serum Blood-bank to linear peptides: 0.6
  Binding of Control serum LUMC to linear peptides: 0.6
  Binding of Control serum LUMC to looped peptides: 0.7
[2]
  Binding of a rabbit serum to linear peptides: 0.6
  Binding of a rabbit serum to looped peptides: 0.6
[3]
  Binding of serum 1a to linear peptides of protein X1 of SARS-CoV Urbani: 0.6
  Binding of serum 1a to looped/cyclic peptide (PEPSCAN-ELISA): 0.6
  Binding of serum 1b to linear peptides of protein X1 of SARS-CoV Urbani: 0.4
  Binding of serum 1b to looped/cyclic peptide (PEPSCAN-ELISA): 0.4
  Binding of serum 2 to linear peptides of protein X1 of SARS-CoV Urbani: 0.5
  Binding of serum 2 to looped/cyclic peptide (PEPSCAN-ELISA): 0.5
  Binding of serum 6 to linear peptides of protein X1 of SARS-CoV Urbani: 0.4
  Binding of serum 6 to looped/cyclic peptide (PEPSCAN-ELISA): 1.0
  Binding of serum 37 to linear peptides of protein X1 of SARS-CoV Urbani: 0.6
  Binding of serum 37 to looped/cyclic peptide (PEPSCAN-ELISA): 0.5
  Binding of serum 62 to linear peptides of protein X1 of SARS-CoV Urbani: 0.6
  Binding of serum 62 to looped/cyclic peptide (PEPSCAN-ELISA): 0.6
  Binding of serum London to linear peptides of protein X1 of SARS-CoV Urbani: 0.2
  Binding of serum London to looped/cyclic peptide (PEPSCAN-ELISA): 1.4
  Binding of serum SARS-green to linear peptides of protein X1 of SARS-CoV Urbani: 0.3
  Binding of serum SARS-green to looped/cyclic peptide (PEPSCAN-ELISA): 0.3
  Binding of serum SARS-yellow to linear peptides of protein X1 of SARS-CoV Urbani: 0.4
  Binding of serum SARS-yellow to looped/cyclic peptide (PEPSCAN-ELISA): 0.4

## VGTDSGFAAYNRYRI
[1]
  Binding of Control Serum Blood-Bank to Looped peptides of the protein M of SARS-CoV Urbani: 0.5
  Binding of Control serum Blood-bank to linear peptides of the protein M of SARS-CoV Urbani: 0.7
  Binding of Control serum LUMC to linear peptides of the protein M of SARS-CoV Urbani: 0.3
  Binding of Control serum LUMC to looped peptides of the protein M of SARS-CoV Urbani: 0.6
[2]
  Rabbit serum linear peptides: 0.4
  Rabbit serum looped peptides: 0.0
[3]
  Binding of serum 1a to linear peptides of protein M of SARS-CoV Urbani: 0.8
  Binding of serum 1a to looped/cyclic peptides of protein M of SARS-CoV Urbani: 0.7
  Binding of serum 1b to linear peptides of protein M of SARS-CoV Urbani: 0.4
  Binding of serum 1b to looped/cyclic peptides of protein M of SARS-CoV Urbani: 0.4
  Binding of serum 2 to linear peptides of protein M of SARS-CoV Urbani: 0.4
  Binding of serum 2 to looped/cyclic peptides of protein M of SARS-CoV Urbani: 0.7
  Binding of serum 6 to linear peptides of protein M of SARS-CoV Urbani: 0.3
  Binding of serum 6 to looped/cyclic peptides of protein M of SARS-CoV Urbani: 0.6
  Binding of serum 37 to linear peptides of protein M of SARS-CoV Urbani: 0.6
  Binding of serum 37 to looped/cyclic peptides of protein M of SARS-CoV Urbani: 0.7
  Binding of serum 62 to linear peptides of protein M of SARS-CoV Urbani: 0.7
  Binding of serum 62 to looped/cyclic peptides of protein M of SARS-CoV Urbani: 0.8
  Binding of serum London to linear peptides of protein M of SARS-CoV Urbani: 0.3
  Binding of serum London to looped/cyclic peptides of protein M of SARS-CoV Urbani: 0.2
  Binding of serum SARS-green to linear peptides of protein M of SARS-CoV Urbani: 0.3
  Binding of serum SARS-green to looped/cyclic peptides of protein M of SARS-CoV Urbani: 0.4
  Binding of serum SARS-yellow to linear peptides of protein M of SARS-CoV Urbani: 0.1
  Binding of serum SARS-yellow to looped/cyclic peptides of protein M of SARS-CoV Urbani: 0.5

## EPCPSGTYEGNSPFH
[1]
  Binding of Control Serum Blood-Bank to Looped peptides: 0.6
  Binding of Control serum Blood-bank to linear peptides: 0.6
  Binding of Control serum LUMC to linear peptides: 0.5
  Binding of Control serum LUMC to looped peptides: 0.8
[2]
  Rabbit serum linear peptides: 0.6
  Rabbit serum looped peptides: 0.4
[3]
  Binding of serum 1a to linear peptides of protein X4 of SARS-CoV Urbani: 0.7
  Binding of serum 1a to looped/cyclic peptides of protein X4 of SARS-CoV Urbani: 0.8
  Binding of serum 1b to linear peptides of protein X4 of SARS-CoV Urbani: 0.5
  Binding of serum 1b to looped/cyclic peptides of protein X4 of SARS-CoV Urbani: 0.6
  Binding of serum 2 to linear peptides of protein X4 of SARS-CoV Urbani: 0.4
  Binding of serum 2 to looped/cyclic peptides of protein X4 of SARS-CoV Urbani: 0.7
  Binding of serum 6 to linear peptides of protein X4 of SARS-CoV Urbani: 0.5
  Binding of serum 6 to looped/cyclic peptides of protein X4 of SARS-CoV Urbani: 0.6
  Binding of serum 37 to linear peptides of protein X4 of SARS-CoV Urbani: 0.6
  Binding of serum 37 to looped/cyclic peptides of protein X4 of SARS-CoV Urbani: 0.7
  Binding of serum 62 to linear peptides of protein X4 of SARS-CoV Urbani: 0.7
  Binding of serum 62 to looped/cyclic peptides of protein X4 of SARS-CoV Urbani: 0.6
  Binding of serum London to linear peptides of protein X4 of SARS-CoV Urbani: 0.7
  Binding of serum London to looped/cyclic peptides of protein X4 of SARS-CoV Urbani: 0.4
  Binding of serum SARS-green to linear peptides of protein X4 of SARS-CoV Urbani: 0.6
  Binding of serum SARS-green to looped/cyclic peptides of protein X4 of SARS-CoV Urbani: 0.5
  Binding of serum SARS-yellow to linear peptides of protein X4 of SARS-CoV Urbani: 0.9
  Binding of serum SARS-yellow to looped/cyclic peptides of protein X4 of SARS-CoV Urbani: 0.5

## QELLIQQWIQFMMSR
[1]
  Binding of Control Serum Blood-Bank to Looped peptides: 0.7
  Binding of Control serum Blood-bank to linear peptides: 0.5
  Binding of Control serum LUMC to linear peptides: 0.3
  Binding of Control serum LUMC to looped peptides: 0.5
[2]
  Binding of a rabbit serum to linear peptides: 0.3
  Binding of a rabbit serum to looped peptides: 0.4
[3]
  Binding of serum 1a to linear peptides of protein X2: 0.7
  Binding of serum 1a to looped/cyclic peptides of protein X2 of SARS-CoV Urbani: 0.5
  Binding of serum 1b to linear peptides of protein X2: 0.4
  Binding of serum 1b to looped/cyclic peptides of protein X2 of SARS-CoV Urbani: 0.5
  Binding of serum 2 to linear peptides of protein X2: 0.4
  Binding of serum 2 to looped/cyclic peptides of protein X2 of SARS-CoV Urbani: 0.6
  Binding of serum 6 to linear peptides of protein X2: 0.3
  Binding of serum 6 to looped/cyclic peptides of protein X2 of SARS-CoV Urbani: 0.6
  Binding of serum 37 to linear peptides of protein X2: 0.5
  Binding of serum 37 to looped/cyclic peptides of protein X2 of SARS-CoV Urbani: 0.5
  Binding of serum 62 to linear peptides of protein X2: 0.5
  Binding of serum 62 to looped/cyclic peptides of protein X2 of SARS-CoV Urbani: 0.7
  Binding of serum London to linear peptides of protein X2: 0.4
  Binding of serum London to looped/cyclic peptides of protein X2 of SARS-CoV Urbani: 1.2
  Binding of serum SARS-green to linear peptides of protein X2: 0.6
  Binding of serum SARS-green to looped/cyclic peptides of protein X2 of SARS-CoV Urbani: 0.3
  Binding of serum SARS-yellow to linear peptides of protein X2: 0.6
  Binding of serum SARS-yellow to looped/cyclic peptides of protein X2 of SARS-CoV Urbani: 0.5

## FLIVAALVFLILCFT
[1]
  Binding of Control Serum Blood-Bank to Looped peptides: 0.7
  Binding of Control serum Blood-bank to linear peptides: 0.4
  Binding of Control serum LUMC to linear peptides: 0.4
  Binding of Control serum LUMC to looped peptides: 0.6
[2]
  Rabbit serum linear peptides: 0.4
  Rabbit serum looped peptides: 0.3
[3]
  Binding of serum 1a to linear peptides of protein X4 of SARS-CoV Urbani: 0.6
  Binding of serum 1a to looped/cyclic peptides of protein X4 of SARS-CoV Urbani: 0.7
  Binding of serum 1b to linear peptides of protein X4 of SARS-CoV Urbani: 0.5
  Binding of serum 1b to looped/cyclic peptides of protein X4 of SARS-CoV Urbani: 0.4
  Binding of serum 2 to linear peptides of protein X4 of SARS-CoV Urbani: 0.4
  Binding of serum 2 to looped/cyclic peptides of protein X4 of SARS-CoV Urbani: 0.7
  Binding of serum 6 to linear peptides of protein X4 of SARS-CoV Urbani: 0.5
  Binding of serum 6 to looped/cyclic peptides of protein X4 of SARS-CoV Urbani: 0.4
  Binding of serum 37 to linear peptides of protein X4 of SARS-CoV Urbani: 0.7
  Binding of serum 37 to looped/cyclic peptides of protein X4 of SARS-CoV Urbani: 0.7
  Binding of serum 62 to linear peptides of protein X4 of SARS-CoV Urbani: 0.7
  Binding of serum 62 to looped/cyclic peptides of protein X4 of SARS-CoV Urbani: 0.6
  Binding of serum London to linear peptides of protein X4 of SARS-CoV Urbani: 0.6
  Binding of serum London to looped/cyclic peptides of protein X4 of SARS-CoV Urbani: 0.3
  Binding of serum SARS-green to linear peptides of protein X4 of SARS-CoV Urbani: 0.5
  Binding of serum SARS-green to looped/cyclic peptides of protein X4 of SARS-CoV Urbani: 0.5
  Binding of serum SARS-yellow to linear peptides of protein X4 of SARS-CoV Urbani: 0.7
  Binding of serum SARS-yellow to looped/cyclic peptides of protein X4 of SARS-CoV Urbani: 0.5
